USRE48461E1, “Modulation of androgen receptor expression” (Ionis Pharmaceuticals, Inc., priority 2012, dated 2021)

Assays:
Assay type in all cases: cell-based, human
[1] = tested on: TMPRSS2 mRNA; assay: TMPRSS2 expression in C4-2 cells; conditions: complete medium, 48 hrs
Experimental: Cells were plated at 1,000 cells per well. […] After an incubation period of 48 hrs, RNA levels of AR, PSA and TMPRSS2 were measured.
Cells were plated at 2,000 cells per well and cultured in CSS media with 1 nM DHT. […] After an incubation period of 48 hrs, RNA levels of AR, PSA and TMPRSS2 were measured.

[2] = tested on: 22RV1 cells; assay: 22RV1 cell proliferation, ASO in combination with MDV3100 (Example 22); conditions: for Proliferation (% untreated control) in 22RV1 without MDV-3100: RNAiMAX, 3 days
Experimental: 22RV1 cells were plated at 2,000 cells per well in 5% CSS medium for 48 hours. […] ISIS 549148 was included as a negative control. […] After a treatment period of 3 days, the proliferative capacity of the cancer cells was measured with CellTiter 96® AQueous One Solution Cell Proliferation kit (Promega), following the manufacturer's instructions. Results are presented in Tables 58-62 as percent inhibition of proliferation, relative to non-treated cells.

[3] = tested on: AR mRNA; assay: AR RNA expression in C4-2B cells (complete, CSS+DHT medium; Example 30); conditions: 48 hrs
Experimental: Cells were plated at 1,000 cells per well. […] ISIS 549148 was included as a negative control. […] After an incubation period of 48 hrs, RNA levels of AR, PSA and TMPRSS2 were measured.
Cells were plated at 2,000 cells per well and cultured in CSS media with 1 nM DHT. […] ISIS 549148 was included as a negative control. […] After an incubation period of 48 hrs, RNA levels of AR, PSA and TMPRSS2 were measured. In the absence of DHT, AR expression in C4-2 cells was 188%, PSA expression was 43% and TMPRSS2 expression was 27% compared to the untreated control.

[4] = tested on: LNCaP cells; assay: LNCaP cell proliferation (complete or CSS+DHT medium); conditions: 5 days; for Proliferation (% untreated control) in LNCaP cells cultured in CSS + DHT medium: CSS + 1 nM DHT medium
Experimental: After a treatment period of 5 days in complete medium or CSS+1 nM DHT medium, the proliferative capacity of the cancer cells was measured with using CellTiter 96® AQueous One Solution or CellTiter-Glo® solution Cell Proliferation kit (Promega), following the manufacturer's instructions. […] Treatment with ISIS oligonucleotides in CSS+DHT medium reduced the proliferative capacity to a greater extent than treatment with MVD-3100. The proliferative capacity of cells cultured in CSS medium without DHT is 17% of untreated control levels.

Sequence: TTGATTTAATGGTTGC [ISIS 560131] (MOE and (S)-cEt gapmer chemistry, further chemistry not given here) [targets intron 1]
- Percent inhibition of TMPRSS2 expression in C4-2 cells cultured in complete medium ([1]; 1 μM): 76%
- Percent inhibition of TMPRSS2 expression in C4-2 cells cultured in complete medium ([1]; 5.0 μM): 71%
- synergy with MDV3100 ([2]; 22RV1 cells): synergistic with MDV3100
- cell proliferation inhibited, combination ([2]; 22RV1 cells, 1.34 nM ASO in combination with 1.0 μM MDV3100): 23%
- inhibited cell proliferation, ASO alone ([2]; 22RV1 cells, ASO alone at 1.34 nM): 3%
- Proliferation (% untreated control) in 22RV1 cells with 0.04 μM MDV-3100 ([2]; ASO dose 0.4 nM + 0.04 μM MDV-3100): 96 % untreated control
- Proliferation (% untreated control) in 22RV1 cells with 0.2 μM MDV-3100 ([2]; ASO dose 0.4 nM + 0.2 μM MDV-3100): 95 % untreated control
- Proliferation (% untreated control) in 22RV1 cells with 1.0 μM MDV-3100 ([2]; ASO dose 0.4 nM + 1.0 μM MDV-3100): 96 % untreated control
- Proliferation (% untreated control) in 22RV1 cells with 5.0 μM MDV-3100 ([2]; ASO dose 0.4 nM + 5.0 μM MDV-3100): 91 % untreated control
- Proliferation (% untreated control) in 22RV1 without MDV-3100 ([2]; ASO dose 0.4 nM): 103 % untreated control
- Proliferation (% untreated control) in 22RV1 cells with 0.04 μM MDV-3100 ([2]; ASO dose 1.34 nM + 0.04 μM MDV-3100): 80 % untreated control
- Proliferation (% untreated control) in 22RV1 cells with 0.2 μM MDV-3100 ([2]; ASO dose 1.34 nM + 0.2 μM MDV-3100): 90 % untreated control
- Proliferation (% untreated control) in 22RV1 cells with 1.0 μM MDV-3100 ([2]; ASO dose 1.34 nM + 1.0 μM MDV-3100): 77 % untreated control
- Proliferation (% untreated control) in 22RV1 cells with 5.0 μM MDV-3100 ([2]; ASO dose 1.34 nM + 5.0 μM MDV-3100): 76 % untreated control
- Proliferation (% untreated control) in 22RV1 without MDV-3100 ([2]; ASO dose 1.34 nM): 97 % untreated control
- Proliferation (% untreated control) in 22RV1 cells with 0.04 μM MDV-3100 ([2]; ASO dose 4.0 nM + 0.04 μM MDV-3100): 65 % untreated control
- Proliferation (% untreated control) in 22RV1 cells with 0.2 μM MDV-3100 ([2]; ASO dose 4.0 nM + 0.2 μM MDV-3100): 76 % untreated control
- Proliferation (% untreated control) in 22RV1 cells with 1.0 μM MDV-3100 ([2]; ASO dose 4.0 nM + 1.0 μM MDV-3100): 63 % untreated control
- Proliferation (% untreated control) in 22RV1 cells with 5.0 μM MDV-3100 ([2]; ASO dose 4.0 nM + 5.0 μM MDV-3100): 63 % untreated control
- Proliferation (% untreated control) in 22RV1 without MDV-3100 ([2]; ASO dose 4.0 nM): 77 % untreated control
- Proliferation (% untreated control) in 22RV1 cells with 0.04 μM MDV-3100 ([2]; ASO dose 13.4 nM + 0.04 μM MDV-3100): 39 % untreated control
- Proliferation (% untreated control) in 22RV1 cells with 0.2 μM MDV-3100 ([2]; ASO dose 13.4 nM + 0.2 μM MDV-3100): 51 % untreated control
- Proliferation (% untreated control) in 22RV1 cells with 1.0 μM MDV-3100 ([2]; ASO dose 13.4 nM + 1.0 μM MDV-3100): 40 % untreated control
- Proliferation (% untreated control) in 22RV1 cells with 5.0 μM MDV-3100 ([2]; ASO dose 13.4 nM + 5.0 μM MDV-3100): 41 % untreated control
- Proliferation (% untreated control) in 22RV1 without MDV-3100 ([2]; ASO dose 13.4 nM): 57 % untreated control
- Percent expression of AR ([3]; CSS + DHT medium, 0.04 μM): 55%
- Percent expression of AR ([3]; CSS + DHT medium, 0.2 μM): 31%
- Percent expression of AR ([3]; CSS + DHT medium, 1 μM): 15%
- Percent expression of AR ([3]; CSS + DHT medium, 5.0 μM): 13%
- Percent expression of AR ([3]; complete medium, 0.04 μM): 34%
- Percent expression of AR ([3]; complete medium, 0.2 μM): 15%
- Percent expression of AR ([3]; complete medium, 1 μM): 14%
- Percent expression of AR ([3]; complete medium, 5.0 μM): 14%
- Proliferation (% untreated control) in LNCaP cells cultured in CSS + DHT medium ([4]; 0.04 μM): 97 % untreated control
- Proliferation (% untreated control) in LNCaP cells cultured in CSS + DHT medium ([4]; 0.2 μM): 81 % untreated control
- Proliferation (% untreated control) in LNCaP cells cultured in CSS + DHT medium ([4]; 1 μM): 46 % untreated control
- Proliferation (% untreated control) in LNCaP cells cultured in CSS + DHT medium ([4]; 5.0 μM): 8 % untreated control
- proliferation of LNCaP cells ([4]; complete medium or CSS+1 nM DHT): reduced proliferation of the cells in a dose dependent compared to the control
- Proliferation (% untreated control) in LNCaP cells cultured in complete medium ([4]; 0.04 μM): 96 % untreated control
- Proliferation (% untreated control) in LNCaP cells cultured in complete medium ([4]; 0.2 μM): 70 % untreated control
- Proliferation (% untreated control) in LNCaP cells cultured in complete medium ([4]; 1 μM): 48 % untreated control
- Proliferation (% untreated control) in LNCaP cells cultured in complete medium ([4]; 5.0 μM): 45 % untreated control
